Measured values published in US20180193321A1, “INDOLO[…]” (The Rockefeller University, priority 2015, published 2018).

Key:
[1] = tested on: HCT-116 human colon carcinoma cancer cells; assay: Cytotoxicity / antiproliferative activity, crystal violet viability assay; assay type: cell-based; conditions: HCT-116 cells, 3 days incubation, crystal violet absorbance at 590 nm relative to DMSO control, triplicate; read-out: IC50 (cytotoxicity against HCT-116)
Procedure: (§1) Because known indolotryptolines are potent human cell line toxins, lazarimide C, novel compounds 6 and 7, as well as cladoniamide A as a control, were tested for cytotoxicity against HCT-116 human colon carcinoma cancer cells.
(§2) The compounds were tested for antiproliferative activity in triplicate using the colon carcinoma cell line HCT-116 (ATCC; CCL-247) [See Brattain et al., “Heterogeneity of malignant cells from a human colonic carcinoma.” Cancer Res. 41(5):1751-1756(1981), incorporated herein by reference in its entirety]. For assays, frozen HCT-116 cells were thawed and grown in McCoy's 5A Modified Medium (Gibco) supplemented with 10% (v/v) FBS. Cells were sub-cultured once, and then cells in log phase growth were harvested by trypsinization. Trypsinized cells were seeded into 96-well plates (1,000 cells/well) and incubated overnight at 37° C. in the presence of 5% CO2. Compounds 6, 7, lazarimide C and cladoniamide (10 mg/mL in DMSO) were sequentially diluted in culture media (2-fold dilution starting at 50 μg/mL) across a 96-well plate and 100 μL was transferred to the appropriate well in an assay plate. The plates were incubated at 37° C. for 3 days and then evaluated for viability using a crystal violet-based colorimetric assay [See Zivadinovic et al., “Membrane estrogen receptor-alpha levels in MCF-7 breast cancer cells predict cAMP and proliferation responses.” Breast Cancer Res. 7(1):R101-112 (2005)]. Cell viability was recorded based on the absorbance at 590 nm in compound treated well relative to DMSO control wells.

[2] = as above; assay type: cell-based, human; conditions: human, HCT-116 colon carcinoma cells; HCT-116 cells, 3 days incubation, crystal violet absorbance at 590 nm relative to DMSO control, triplicate; read-out: IC50 (cytotoxicity against HCT-116)
Procedure: as §1, §2

SMILES	IC50 [1]	IC50 at 3 days [2]
COc1c2n(c3ccccc13)[C@]1(O)C(=O)N(C)C(=O)[C@]1(O)c1c-2[nH]c2ccc(Cl)cc12 [cladoniamide A, reference compound]	40.4 nM	–
CN1C(=O)[C@@]2(O)c3c([nH]c4cc(Cl)ccc34)-c3[nH]c4ccc(Cl)cc4c3[C@@]2(O)C1=O [lazarimide C]	–	25800 nM
COc1c2n(c3cc(Cl)c(O)cc13)[C@]1(O)C(=O)N(C)C(=O)[C@]1(O)c1c-2[nH]c2ccc(Cl)cc12 [Compound 7, lazarimide A]	–	8.4 nM
COc1c2n(c3cc(Cl)ccc13)[C@]1(O)C(=O)N(C)C(=O)[C@]1(O)c1c-2[nH]c2ccc(Cl)cc12 [Compound 6, lazarimide B]	–	11.6 nM
